Values joined by “and” are separate entries in the source; they are usually repeats but may differ in a detail not shown here. Equal values may be shown once. Marks after values point to notes of the source that are not given here.
Experiments:
Format in all cases: in vivo
mice [1] = experiment: “Hot plate” test in mice; conditions: hot plate, mice
Description: (§1) The experiments were carried out on male albino Swiss mice (body weight 18–26 g). All of the animals were housed at constant humidity (60%) and temperature (25 °C) and kept on a 12 h light/dark cycle. Animals were fed a standard pellet diet with free access to tap water. All procedures were conducted according to Animal Care and Use Committee guidelines, and approved by the Ethical Committee of Jagiellonian University, Kraków.
(§2) Control and experimental groups consisted of 6–8 animals each. The investigated compounds were administered intraperitoneally as a suspension in 0.5% methylcellulose in a constant volume of 10 mL/kg.
(§3) The statistical significance was calculated using a Student’s t-test. The ED50 values and their confidence limits were calculated according to the method of Litchfield and Wilcoxon.
(§4) Pain reactivity was measured in two tests: “hot plate” test (according to the method of Eddy and Leimbach) and “writhing” test in mice (according to Hendershot and Forsaith).
Animals were placed individually on the metal plate, heated to 55 ± 1 °C. The latency time (s) to the pain reaction (licking of the hind paws or jumping) was recorded by a stop-watch. A cutoff time of 45 s was used to prevent tissue damage.

mice [2] = experiment: Thiopental anesthesia (thiopental-induced sleep); conditions: for Prolongation (%) of thiopental anesthesia / Duration of Anesthesia ± SEM: i.p.; for effect on duration of thiopental anesthesia (in words): mouse, in vivo; for Duration of Anesthesia ± SEM: thiopental
Source text: The pilot biological studies for imides 9 and 11 were supplemented with the determination of the effect of the intraperitoneal administration of the test compounds on the duration of thiopental-induced sleep. The mechanism and the degree of crossing the blood–brain barrier has not been precisely defined. The observed sedative effects may indicate good penetration of compounds into the central nervous system, which, however, has not been confirmed.
as §2

mice [3] = experiment: Spontaneous locomotor activity in mice (photoresistor actometers); conditions: for ED50: confidence limits in parentheses, read-out: ED50 (mg/kg) ± SEM, spontaneous locomotor activity; for Number of impulses ± SEM (30min): i.p.
Description: as §1, §2
Spontaneous locomotor activity in mice was measured in circular photoresistoractometers (32 cm in diameter). […] Thirty minutes after the injection of the investigated compounds, mice were placed in the actometers for 30 min. Each crossing of the light beam was recorded automatically. The amount of impulses was noted after 30 min.

mice [4] = experiment: “Writhing” test in mice (phenylbenzoquinone); conditions: for ED50: Mus musculus, ip, read-out: ED50 (mg/kg) ± SEM, writhing test; for ED50 / ED50 (mg/kg) ± SEM, writhing test: confidence limits in parentheses; for ED50 (mg/kg) ± SEM, writhing test / Mean no. of writhing ± SEM: i.p.
Description: as §1, §2, §3, §4
Then, after 25 min, the irritant (phenylbenzoquinone, 0.02% solution, ethanol-water, 5:95) was also administered intraperitoneally in a constant volume of 0.25 mL. Five min after the application of the irritant,a 10 min long period of observation started, in which the number of writhing episodes was counted.
The analgesic effect of individual doses was expressed in percent:(1) % Analgesic effect=100−∑ of writing incidents in experimental group/∑ of writhing incidents in control group×100

mice [5] = experiment: in vivo; conditions: ED50 of the writhing test (Table 3) relative to LD50 i.p.
Description: as §1, §2

in vivo = conditions: male, albino Swiss, mouse, in vivo, ip; mice, intraperitoneal, mortality after 24 h; confidence limits in parentheses
Description: as §1, §2

[6] = Mus musculus, ip, 0.5 h, dose 100 mg/kg, read-out: Prolonged Time (%)
[7] = Mus musculus, ip, 0.5 h, dose 200 mg/kg, read-out: Prolonged Time (%)
[8] = Mus musculus, ip, dose 25 mg/kg, read-out: Degree of motor inhibition (%)
[9] = Mus musculus, ip, dose 50 mg/kg, read-out: Degree of motor inhibition (%)
[10] = Mus musculus, ip, dose 100 mg/kg, read-out: Degree of motor inhibition (%)
[11] = Mus musculus, ip, dose 200 mg/kg, read-out: Degree of motor inhibition (%)

COc1nc(C)cc2c1C(=O)N(CCN1CCN(c3ccccc3)CC1)C2=O [Compound 9]
change in vivo at 75 mg/kg (mice [1]; Mus musculus, ip, 0.5 h, dose 75 mg/kg, read-out: Prolonged Time (%)): 55%
change in vivo at 150 mg/kg (mice [1]; Mus musculus, ip, 0.5 h, dose 150 mg/kg, read-out: Prolonged Time (%)): 102%
change in vivo at 300 mg/kg (mice [1]; Mus musculus, ip, 0.5 h, dose 300 mg/kg, read-out: Prolonged Time (%)): 105%
Time of Reaction to Pain Stimulus (s) ± SEM (mice [1]; dose 75 mg/kg): 30.3 ± 2.7 s
Time of Reaction to Pain Stimulus (s) ± SEM (mice [1]; dose 150 mg/kg): 39.2 ± 5 s
Time of Reaction to Pain Stimulus (s) ± SEM (mice [1]; dose 300 mg/kg): 40.0 ± 4.4 s
Prolongation (%) of thiopental anesthesia (mice [2]; dose 9.375 mg/kg): 34.8%
Prolongation (%) of thiopental anesthesia (mice [2]; dose 18.75 mg/kg): 96.5 * % and 96.5%
Prolongation (%) of thiopental anesthesia (mice [2]; dose 37.5 mg/kg): 157.1 ** % and 157.1%
effect on duration of thiopental anesthesia (in words) (mice [2]): extended the duration of thiopental anesthesia
Duration of Anesthesia ± SEM (mice [2]; dose 9.375 mg/kg): 69.4 ± 12 min
Duration of Anesthesia ± SEM (mice [2]; dose 18.75 mg/kg): 101.2 ± 28.4 min
Duration of Anesthesia ± SEM (mice [2]; dose 37.5 mg/kg): 132.4 ± 27.8 min
ED50 (mice [3]; Mus musculus, ip): 18.8 mg/kg
inhibition at 4.68 mg/kg (mice [3]; Mus musculus, ip, dose 4.68 mg/kg, read-out: Degree of motor inhibition (%)): 22.6%
inhibition at 9.37 mg/kg (mice [3]; Mus musculus, ip, dose 9.37 mg/kg (Table 9), read-out: % Inh. of locomotor activity): 42.8%
inhibition at 18.75 mg/kg (mice [3]; Mus musculus, ip, dose 18.75 mg/kg, read-out: Degree of motor inhibition (%)): 45.9%
inhibition at 37.5 mg/kg (mice [3]; Mus musculus, ip, dose 37.5 mg/kg, read-out: Degree of motor inhibition (%)): 67.2%
Number of impulses ± SEM (30min) (mice [3]; dose 18.75 mg/kg): 244 ± 45
Number of impulses ± SEM (30min) (mice [3]; dose 37.5 mg/kg): 148 ± 32
Number of impulses ± SEM (30min) (mice [3]; dose 93.75 mg/kg (as printed in Table S2)): 258 ± 47.4
ED50 (mice [4]): 3.25 mg/kg
ED50 (mg/kg) ± SEM, writhing test (mice [4]): 3.67 mg/kg
Mean no. of writhing ± SEM (mice [4]; dose 4.68 mg/kg): 22.0 ± 4.6
Mean no. of writhing ± SEM (mice [4]; dose 9.375 mg/kg): 9.8 ± 1.8
Mean no. of writhing ± SEM (mice [4]; dose 18.75 mg/kg): 5.0 ± 2.0
Mean no. of writhing ± SEM (mice [4]; dose 37.5 mg/kg): 1.2 ± 0.7
analgesic ED50 as fraction of LD50 (mice [5]): ≈ 1/408
LD50 at 24 h (in vivo): 1500 mg/kg

COc1ccccc1N1CCN(CCN2C(=O)c3cc(C)nc(OC)c3C2=O)CC1 [Compound 11]
change in vivo at 100 mg/kg (mice [1]; [6]): 23%
change in vivo at 200 mg/kg (mice [1]; [7]): 50.7%
change in vivo at 400 mg/kg (mice [1]; Mus musculus, ip, 0.5 h, dose 400 mg/kg, read-out: Prolonged Time (%)): 105%
Time of Reaction to Pain Stimulus (s) ± SEM (mice [1]; dose 100 mg/kg): 24.0 ± 5.0 s
Time of Reaction to Pain Stimulus (s) ± SEM (mice [1]; dose 200 mg/kg): 29.4 ± 5.0 s
Time of Reaction to Pain Stimulus (s) ± SEM (mice [1]; dose 400 mg/kg): 40.0 ± 8.5 s
Prolongation (%) of thiopental anesthesia (mice [2]; dose 12.5 mg/kg): 36.3%
Prolongation (%) of thiopental anesthesia (mice [2]; dose 25 mg/kg): 16.11%
Prolongation (%) of thiopental anesthesia (mice [2]; dose 50 mg/kg): 140.8 *** % and 140.8%
effect on duration of thiopental anesthesia (in words) (mice [2]): extended the duration of thiopental anesthesia
Duration of Anesthesia ± SEM (mice [2]; dose 12.5 mg/kg): 70.2 ± 24 min
Duration of Anesthesia ± SEM (mice [2]; dose 25 mg/kg): 50.8 ± 14.2 min
Duration of Anesthesia ± SEM (mice [2]; dose 50 mg/kg): 124 ± 16.2 min
ED50 (mice [3]; Mus musculus, ip): 19.7 mg/kg
inhibition at 6.25 mg/kg (mice [3]; Mus musculus, ip, dose 6.25 mg/kg, read-out: Degree of motor inhibition (%)): 28.2%
inhibition at 12.5 mg/kg (mice [3]; Mus musculus, ip, dose 12.5 mg/kg, read-out: Degree of motor inhibition (%)): 55.4%
inhibition at 25 mg/kg (mice [3]; [8]): 55.9%
inhibition at 50 mg/kg (mice [3]; [9]): 68.7%
Number of impulses ± SEM (30min) (mice [3]; dose 6.25 mg/kg): 324 ± 49
Number of impulses ± SEM (30min) (mice [3]; dose 12.5 mg/kg): 201 ± 74
Number of impulses ± SEM (30min) (mice [3]; dose 25 mg/kg): 199.1 ± 48
Number of impulses ± SEM (30min) (mice [3]; dose 50 mg/kg): 141 ± 63
ED50 (mice [4]): 3.67 mg/kg
ED50 (mg/kg) ± SEM, writhing test (mice [4]): 3.25 mg/kg
Mean no. of writhing ± SEM (mice [4]; dose 3.125 mg/kg): 17.7 ± 2.4
Mean no. of writhing ± SEM (mice [4]; dose 6.25 mg/kg): 6.0 ± 2.8
Mean no. of writhing ± SEM (mice [4]; dose 12.5 mg/kg): 4.3 ± 1.1
Mean no. of writhing ± SEM (mice [4]; dose 50 mg/kg): 1.4 ± 0.6
LD50 at 24 h (in vivo): > 2000 mg/kg

CCOc1nc(C)cc2c1C(=O)N(CN1CCN(c3cccc(Cl)c3)CC1)C2=O [Compound 14]
change in vivo at 100 mg/kg (mice [1]; [6]): 2.32%
change in vivo at 200 mg/kg (mice [1]; [7]): 16.8%
Time of Reaction to Pain Stimulus (s) ± SEM (mice [1]; dose 100 mg/kg): 17.6 ± 2.4 s
Time of Reaction to Pain Stimulus (s) ± SEM (mice [1]; dose 200 mg/kg): 20.1 ± 2.3 s
ED50 (mice [3]; Mus musculus, ip): 98 ± 13.3 mg/kg
inhibition at 25 mg/kg (mice [3]; [8]): 10.7%
inhibition at 50 mg/kg (mice [3]; [9]): 3.5%
inhibition at 100 mg/kg (mice [3]; [10]): 52.4%
inhibition at 200 mg/kg (mice [3]; [11]): 66%
Number of impulses ± SEM (30min) (mice [3]; dose 25 mg/kg): 394 ± 70
Number of impulses ± SEM (30min) (mice [3]; dose 50 mg/kg): 280 ± 46
Number of impulses ± SEM (30min) (mice [3]; dose 100 mg/kg): 210 ± 40
Number of impulses ± SEM (30min) (mice [3]; dose 200 mg/kg): 150 ± 48
ED50 (mice [4]): 18.4 mg/kg
Mean no. of writhing ± SEM (mice [4]; dose 12.5 mg/kg): 15.1 ± 4.2
Mean no. of writhing ± SEM (mice [4]; dose 25 mg/kg): 9.1 ± 0.8
Mean no. of writhing ± SEM (mice [4]; dose 50 mg/kg): 5.9 ± 1.9
Mean no. of writhing ± SEM (mice [4]; dose 100 mg/kg): 1.8 ± 0.3
LD50 at 24 h (in vivo): > 2000 mg/kg

COc1nc(C)cc2c1C(=O)N(CN1CCN(c3ccccc3Cl)CC1)C2=O [Compound 15]
change in vivo at 200 mg/kg (mice [1]; [7]): 15.7%
Time of Reaction to Pain Stimulus (s) ± SEM (mice [1]; dose 100 mg/kg): 17.0 ± 2.8 s
Time of Reaction to Pain Stimulus (s) ± SEM (mice [1]; dose 200 mg/kg): 19.9 ± 3.9 s
ED50 (mice [3]; Mus musculus, ip): 89.1 ± 4.46 mg/kg
inhibition at 25 mg/kg (mice [3]; [8]): 9.52%
inhibition at 50 mg/kg (mice [3]; [9]): 42.6%
inhibition at 100 mg/kg (mice [3]; [10]): 54%
inhibition at 200 mg/kg (mice [3]; [11]): 65.5%
Number of impulses ± SEM (30min) (mice [3]; dose 25 mg/kg): 399 ± 71
Number of impulses ± SEM (30min) (mice [3]; dose 50 mg/kg): 253 ± 48
Number of impulses ± SEM (30min) (mice [3]; dose 100 mg/kg): 203 ± 39
Number of impulses ± SEM (30min) (mice [3]; dose 200 mg/kg): 152 ± 34
ED50 (mice [4]): 19.2 ± 2.14 mg/kg
Mean no. of writhing ± SEM (mice [4]; dose 12.5 mg/kg): 17.2 ± 3.2
Mean no. of writhing ± SEM (mice [4]; dose 25 mg/kg): 9.4 ± 2.2
Mean no. of writhing ± SEM (mice [4]; dose 50 mg/kg): 2.9 ± 1.9
Mean no. of writhing ± SEM (mice [4]; dose 100 mg/kg): 1.4 ± 0.4
LD50 at 24 h (in vivo): > 2000 mg/kg
